Values of other authors in patent US20250288728A1, “SYSTEMS AND METHODS FOR GEL-BASED NEUROMODULATION” (Tulavi Therapeutics, Inc., priority 2018, published 2025).

Tests used:
[1] = tested on: TRPV1 expressing cardiac nerve endings; details: 50 μg/ml RTX (10% ethanol in 10% Tween 80/isotonic saline) painted twice on right and left ventricles
[2] = tested on: sympathetic ganglia; details: in vitro; 4 μg/ml (10 uM); within 36 hours

Question: For `C=C(C)[C@]12C[C@@H](C)[C@@]34O[C@](Cc5ccccc5)(O[C@@H]1[C@@H]3C=C(COC(=O)Cc1ccc(O)c(OC)c1)C[C@]1(O)C(=O)C(C)=C[C@@H]41)O2` [RTX, resiniferatoxin], which “duration of complete ablation of TRPV1 expressing cardiac nerve endings” value [1] is on record?
Answer: over 10 weeks

Question: With Cholesterol oxides as the molecule, how does the “sympathetic ganglia cell death” value [2] read?
Answer: rapid cell sympathetic ganglia cell death
